Laboratory results reported in patent US20230157952A1, “METHOD FOR IMPROVING THE STABILITY OF A PHARMACEUTICAL COMPOSITION COMPRISING A HIGH PENETRATION DRUG, AND THE PHARMACEUTICAL COMPOSITION OBTAINED THEREFROM” (Techfields Inc., priority 2020, published 2023).
Values belong to the compound of their own block, whether it stands above or below them.

Assay: Effect of temperature (and pH) on the stability of the solution (purity)
Type: physicochemical
Details: 7% solution in water

SMILES: CCN(CC)CCOC(=O)Cc1ccc(C(=O)c2ccc(C)cc2)n1C.Cl
- Purity(%) at day 0 (pH 1.0, day 0): 97.4 ± 0.4%
- Purity(%) at day 21 (5° C.) (pH 1.0, day 21, 5° C.): 90.3 ± 0.3%
- Purity(%) at day 21 (25° C.) (pH 1.0, day 21, 25° C.): 65.5 ± 0.3%
- Purity(%) at day 21 (40° C.) (pH 1.0, day 21, 40° C.): 9.4 ± 0.3%
- Purity (%) at day 21 (60° C.) (pH 1.0, day 21, 60° C.): 0%
- Purity(%) at day 0 (pH 2.0, day 0): 97.6 ± 0.3%
- Purity(%) at day 21 (5° C.) (pH 2.0, day 21, 5° C.): 93.5 ± 0.3%
- Purity(%) at day 21 (25° C.) (pH 2.0, day 21, 25° C.): 78.1 ± 0.3%
- Purity(%) at day 21 (40° C.) (pH 2.0, day 21, 40° C.): 20.6 ± 0.3%
- Purity (%) at day 21 (60° C.) (pH 2.0, day 21, 60° C.): 0%
- Purity(%) at day 0 (pH 3.0, day 0): 97.8 ± 0.2%
- Purity(%) at day 21 (5° C.) (pH 3.0, day 21, 5° C.): 95.3 ± 0.3%
- Purity(%) at day 21 (25° C.) (pH 3.0, day 21, 25° C.): 91.2 ± 0.2%
- Purity(%) at day 21 (40° C.) (pH 3.0, day 21, 40° C.): 41.7 ± 0.2%
- Purity (%) at day 21 (60° C.) (pH 3.0, day 21, 60° C.): 0%
- Purity(%) at day 0 (pH 3.7, day 0): 97.9 ± 0.2%
- Purity(%) at day 21 (5° C.) (pH 3.7, day 21, 5° C.): 96.4 ± 0.2%
- Purity(%) at day 21 (25° C.) (pH 3.7, day 21, 25° C.): 95.6 ± 0.2%
- Purity(%) at day 21 (40° C.) (pH 3.7, day 21, 40° C.): 56.6 ± 0.2%
- Purity (%) at day 21 (60° C.) (pH 3.7, day 21, 60° C.): 11.5 ± 0.3%
- Purity(%) at day 0 (pH 4.0, day 0): 98.1 ± 0.1%
- Purity(%) at day 21 (5° C.) (pH 4.0, day 21, 5° C.): 96.8 ± 0.1%
- Purity(%) at day 21 (25° C.) (pH 4.0, day 21, 25° C.): 95.7 ± 0.2%
- Purity(%) at day 21 (40° C.) (pH 4.0, day 21, 40° C.): 58.3 ± 0.2%
- Purity (%) at day 21 (60° C.) (pH 4.0, day 21, 60° C.): 23.0 ± 0.3%
- Purity(%) at day 0 (pH 4.3, day 0): 98.1 ± 0.2%
- Purity(%) at day 21 (5° C.) (pH 4.3, day 21, 5° C.): 96.9 ± 0.1%
- Purity(%) at day 21 (25° C.) (pH 4.3, day 21, 25° C.): 95.4 ± 0.1%
- Purity(%) at day 21 (40° C.) (pH 4.3, day 21, 40° C.): 60.1 ± 0.1%
- Purity (%) at day 21 (60° C.) (pH 4.3, day 21, 60° C.): 25.8 ± 0.2%
- Purity(%) at day 0 (pH 4.6, day 0): 97.9 ± 0.1%
- Purity(%) at day 21 (5° C.) (pH 4.6, day 21, 5° C.): 96.3 ± 0.2%
- Purity(%) at day 21 (25° C.) (pH 4.6, day 21, 25° C.): 94.9 ± 0.2%
- Purity(%) at day 21 (40° C.) (pH 4.6, day 21, 40° C.): 55.3 ± 0.2%
- Purity (%) at day 21 (60° C.) (pH 4.6, day 21, 60° C.): 13.5 ± 0.3%
- Purity(%) at day 0 (pH 5.0, day 0): 97.8 ± 0.2%
- Purity(%) at day 21 (5° C.) (pH 5.0, day 21, 5° C.): 96.1 ± 0.2%
- Purity(%) at day 21 (25° C.) (pH 5.0, day 21, 25° C.): 92.1 ± 0.3%
- Purity(%) at day 21 (40° C.) (pH 5.0, day 21, 40° C.): 37.8 ± 0.3%
- Purity (%) at day 21 (60° C.) (pH 5.0, day 21, 60° C.): 1.7 ± 0.3%
- Purity(%) at day 0 (pH 6.0, day 0): 97.6 ± 0.3%
- Purity(%) at day 21 (5° C.) (pH 6.0, day 21, 5° C.): 94.4 ± 0.2%
- Purity(%) at day 21 (25° C.) (pH 6.0, day 21, 25° C.): 79.5 ± 0.3%
- Purity(%) at day 21 (40° C.) (pH 6.0, day 21, 40° C.): 19.5 ± 0.2%
- Purity (%) at day 21 (60° C.) (pH 6.0, day 21, 60° C.): 0%
- Purity(%) at day 0 (pH 7.0, day 0): 97.4 ± 0.3%
- Purity(%) at day 21 (5° C.) (pH 7.0, day 21, 5° C.): 90.0 ± 0.3%
- Purity(%) at day 21 (25° C.) (pH 7.0, day 21, 25° C.): 59.7 ± 0.3%
- Purity(%) at day 21 (40° C.) (pH 7.0, day 21, 40° C.): 5.7 ± 0.3%
- Purity (%) at day 21 (60° C.) (pH 7.0, day 21, 60° C.): 0%
- Purity(%) at day 0 (pH 8.0, day 0): 97.1 ± 0.3%
- Purity(%) at day 21 (5° C.) (pH 8.0, day 21, 5° C.): 78.1 ± 0.3%
- Purity(%) at day 21 (25° C.) (pH 8.0, day 21, 25° C.): 43.6 ± 0.4%
- Purity(%) at day 21 (40° C.) (pH 8.0, day 21, 40° C.): 0%
- Purity (%) at day 21 (60° C.) (pH 8.0, day 21, 60° C.): 0%

- Purity(%) at day 0 (pH 1.0, day 0): 97.2 ± 0.3%
- Purity(%) at day 21 (5° C.) (pH 1.0, day 21, 5° C.): 91.1 ± 0.4%
- Purity(%) at day 21 (25° C.) (pH 1.0, day 21, 25° C.): 67.5 ± 0.4%
- Purity(%) at day 21 (40° C.) (pH 1.0, day 21, 40° C.): 10.4 ± 0.4%
- Purity (%) at day 21 (60° C.) (pH 1.0, day 21, 60° C.): 0%
- Purity(%) at day 0 (pH 2.0, day 0): 97.3 ± 0.3%
- Purity(%) at day 21 (5° C.) (pH 2.0, day 21, 5° C.): 94.7 ± 0.3%
- Purity(%) at day 21 (25° C.) (pH 2.0, day 21, 25° C.): 81.1 ± 0.3%
- Purity(%) at day 21 (40° C.) (pH 2.0, day 21, 40° C.): 23.6 ± 0.3%
- Purity (%) at day 21 (60° C.) (pH 2.0, day 21, 60° C.): 0%
- Purity(%) at day 0 (pH 3.0, day 0): 97.6 ± 0.2%
- Purity(%) at day 21 (5° C.) (pH 3.0, day 21, 5° C.): 96.3 ± 0.2%
- Purity(%) at day 21 (25° C.) (pH 3.0, day 21, 25° C.): 92.2 ± 0.2%
- Purity(%) at day 21 (40° C.) (pH 3.0, day 21, 40° C.): 45.7 ± 0.3%
- Purity (%) at day 21 (60° C.) (pH 3.0, day 21, 60° C.): 0%
- Purity(%) at day 0 (pH 3.7, day 0): 97.6 ± 0.2%
- Purity(%) at day 21 (5° C.) (pH 3.7, day 21, 5° C.): 97.3 ± 0.2%
- Purity(%) at day 21 (25° C.) (pH 3.7, day 21, 25° C.): 96.8 ± 0.2%
- Purity(%) at day 21 (40° C.) (pH 3.7, day 21, 40° C.): 55.5 ± 0.2%
- Purity (%) at day 21 (60° C.) (pH 3.7, day 21, 60° C.): 13.5 ± 0.3%
- Purity(%) at day 0 (pH 4.0, day 0): 97.9 ± 0.1%
- Purity(%) at day 21 (5° C.) (pH 4.0, day 21, 5° C.): 97.4 ± 0.1%
- Purity(%) at day 21 (25° C.) (pH 4.0, day 21, 25° C.): 96.9 ± 0.1%
- Purity(%) at day 21 (40° C.) (pH 4.0, day 21, 40° C.): 60.3 ± 0.2%
- Purity (%) at day 21 (60° C.) (pH 4.0, day 21, 60° C.): 19.7 ± 0.3%
- Purity(%) at day 0 (pH 4.3, day 0): 97.7 ± 0.2%
- Purity(%) at day 21 (5° C.) (pH 4.3, day 21, 5° C.): 97.3 ± 0.1%
- Purity(%) at day 21 (25° C.) (pH 4.3, day 21, 25° C.): 96.7 ± 0.1%
- Purity(%) at day 21 (40° C.) (pH 4.3, day 21, 40° C.): 63.1 ± 0.1%
- Purity (%) at day 21 (60° C.) (pH 4.3, day 21, 60° C.): 16.8 ± 0.2%
- Purity(%) at day 0 (pH 4.6, day 0): 97.8 ± 0.1%
- Purity(%) at day 21 (5° C.) (pH 4.6, day 21, 5° C.): 97.3 ± 0.2%
- Purity(%) at day 21 (25° C.) (pH 4.6, day 21, 25° C.): 95.9 ± 0.2%
- Purity(%) at day 21 (40° C.) (pH 4.6, day 21, 40° C.): 57.3 ± 0.2%
- Purity (%) at day 21 (60° C.) (pH 4.6, day 21, 60° C.): 15.5 ± 0.3%
- Purity(%) at day 0 (pH 5.0, day 0): 97.7 ± 0.3%
- Purity(%) at day 21 (5° C.) (pH 5.0, day 21, 5° C.): 96.1 ± 0.2%
- Purity(%) at day 21 (25° C.) (pH 5.0, day 21, 25° C.): 93.9 ± 0.3%
- Purity(%) at day 21 (40° C.) (pH 5.0, day 21, 40° C.): 38.9 ± 0.3%
- Purity (%) at day 21 (60° C.) (pH 5.0, day 21, 60° C.): 1.5 ± 0.3%
- Purity(%) at day 0 (pH 6.0, day 0): 97.5 ± 0.3%
- Purity(%) at day 21 (5° C.) (pH 6.0, day 21, 5° C.): 94.4 ± 0.3%
- Purity(%) at day 21 (25° C.) (pH 6.0, day 21, 25° C.): 88.9 ± 0.2%
- Purity(%) at day 21 (40° C.) (pH 6.0, day 21, 40° C.): 21.6 ± 0.2%
- Purity (%) at day 21 (60° C.) (pH 6.0, day 21, 60° C.): 0%
- Purity(%) at day 0 (pH 7.0, day 0): 97.3 ± 0.3%
- Purity(%) at day 21 (5° C.) (pH 7.0, day 21, 5° C.): 89.0 ± 0.3%
- Purity(%) at day 21 (25° C.) (pH 7.0, day 21, 25° C.): 59.8 ± 0.3%
- Purity(%) at day 21 (40° C.) (pH 7.0, day 21, 40° C.): 5.4 ± 0.3%
- Purity (%) at day 21 (60° C.) (pH 7.0, day 21, 60° C.): 0%
- Purity(%) at day 0 (pH 8.0, day 0): 96.9 ± 0.4%
- Purity(%) at day 21 (5° C.) (pH 8.0, day 21, 5° C.): 77.1 ± 0.3%
- Purity(%) at day 21 (25° C.) (pH 8.0, day 21, 25° C.): 44.5 ± 0.4%
- Purity(%) at day 21 (40° C.) (pH 8.0, day 21, 40° C.): 0%
- Purity (%) at day 21 (60° C.) (pH 8.0, day 21, 60° C.): 0%
SMILES: CCN(CC)CCOC(=O)CC1=C(C)C(=Cc2ccc([S+](C)[O-])cc2)c2ccc(F)cc21.Cl (centres unmarked)
